Measured values from patent publication US20210115104A1, “AMYLIN ANALOGUES” (Zealand Pharma A/S, priority 2015, published 2021).
pEC50: −log10 of the molar value. *1 amine or outer side, *2 acyl side, *3 side chain or, on linkers, in order; H or OH if unused. Where a SMILES comes first, the peptide text is derived from it. Bridges are numbered along the chain shown (N, C = ends). [ ]: non-standard residue; d: D form. The star is where a group is joined. C20 diacid = O=C(O)CCCCCCCCCCCCCCCCCCC(=O)*; γGlu = O=C(O)[C@H](CCC(=O)[*:2])N[*:1]; Hyp = O=C(O)[C@@H]1C[C@@H](O)CN1; NMeI = CC[C@H](C)[C@H](NC)C(=O)O; Sar = CNCC(=O)O

Key:
[1] = biological target: T1, human calcitonin receptor (hCTR2) (Homo sapiens, UniProt P30988); experiment: hCTR2 cAMP assay (AlphaScreen) in COS7 cells; format: cell-based; details: cAMP induction, COS7 cells expressing hCTR2; Table 1; read-out: hCTR2 EC50
T1 construct: expressed in transfected cells
T1 sequence (P30988 25-474): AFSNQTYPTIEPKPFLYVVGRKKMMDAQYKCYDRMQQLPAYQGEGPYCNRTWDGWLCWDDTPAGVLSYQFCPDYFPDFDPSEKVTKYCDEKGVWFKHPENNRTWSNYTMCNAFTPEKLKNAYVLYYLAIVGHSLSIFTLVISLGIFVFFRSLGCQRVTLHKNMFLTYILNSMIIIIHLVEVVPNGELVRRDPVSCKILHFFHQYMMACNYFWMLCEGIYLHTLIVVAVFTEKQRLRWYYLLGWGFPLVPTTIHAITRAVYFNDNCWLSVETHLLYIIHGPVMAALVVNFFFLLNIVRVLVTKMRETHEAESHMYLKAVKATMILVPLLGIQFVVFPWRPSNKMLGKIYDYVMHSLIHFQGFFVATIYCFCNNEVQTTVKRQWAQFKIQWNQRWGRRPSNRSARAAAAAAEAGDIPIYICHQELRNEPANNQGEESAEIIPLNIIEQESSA
Outline: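 Stable hCTR2 clone in RAMP-naïve COS7 cells stimulated 15 min at 37 °C with increasing peptide concentrations in Tyrode buffer pH 7.4 containing IBMX and 0.1% casein. cAMP in lysates measured by AlphaScreen; EC50 from 4-parameter logistic fit.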

[2] = Assessment of chemical stability (RP-HPLC normalized purity); format: physicochemical; details: 7 days, 40° C., Table 1; for Normalized purity after 7 days, 40° C., pH 4: pH 4, 0.2 mg/ml; for Normalized purity after 7 days, 40° C., pH 6: pH 6, 0.2 mg/ml; for Normalized purity after 7 days, 40° C., pH 9: pH 9, 0.2 mg/ml; for Normalized purity after 7 days, 40° C., pH 7.5: pH 7.5, 0.2 mg/ml
Outline: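 Peptides at 0.2 mg/ml in water adjusted to pH 4, 6, 7.5 or 9, incubated at 40° C for 7 days. Main-peak area-% by RP-HPLC (C8 ammonium formate or C18 TFA gradient, UV 220 nm), normalized to T=0 as 100.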

[3] = Pharmacokinetic (PK) profiling in rats; format: in vivo, rat; design: CI/F (apparent clearance values): unit not given here; details: Sprague Dawley male rats, single sc 30 nmol/kg
Procedure: Sprague Dawley male rats were given a single subcutaneous (sc) bolus of each peptide to be tested, as specified below. 30 nmol/kg doses of compound were administered. Blood samples were drawn from the tail vein prior to dosing and at 24, 48, 72, 96 and 168 hours after dosing. Blood samples were taken from two rats at each time point, and only 2 blood samples were drawn from each rat, i.e. […] were used for each compound. The rats were euthanized immediately after the last blood sampling by concussion and cervical dislocation.
The dosing vehicle used for each test peptide was a mannitol-containing histidine buffer (pH 7.0). Plasma samples were analyzed after precipitation with ethanol by liquid chromatography mass spectrometry (LC-MS/MS). Mean plasma concentrations were used for calculation of the pharmacokinetic parameters using the non-compartmental approach in Phoenix WinNonlin 6.3.
Plasma terminal elimination half-life (t1/2) was determined as ln(2)/λz, where λz is the magnitude of the slope of the log linear regression of the log concentration versus time profile during the terminal phase. Apparent clearance (CL/F) was determined as dose/AUCinf (sc), where AUCinf is the area under the plasma concentration vs. time curve extrapolated to infinity (AUCinf=AUClast+Clast/λz, where Clast is the last observed plasma concentration).

pEC50 [1] | Normalized purity after 7 days, 40° C., pH 4 [2] | Normalized purity after 7 days, 40° C., pH 6 [2] | Normalized purity after 7 days, 40° C., pH 9 [2] | CI/F (apparent clearance values) [3] | Normalized purity after 7 days, 40° C., pH 7.5 [2] | Compound
10.11 | A (A = >90%) | B (B = 70-90%) | B (B = 70-90%) | 0.0069 |  | CC[C@H](C)[C@@H](C(=O)N[C@@H](CC(C)C)C(=O)N[C@@H](CO)C(=O)N[C@@H](CO)C(=O)N[C@H](C(=O)N[C@@H](CCC(=O)O)C(=O)N[C@H](C(=O)NCC(=O)N[C@@H](CO)C(=O)N[C@@H](CC(N)=O)C(=O)N[C@H](C(=O)N1C[C@H](O)C[C@H]1C(N)=O)[C@@H](C)O)C(C)C)[C@@H](C)O)N(C)C(=O)[C@H](C)NC(=O)CN(C)C(=O)[C@H](Cc1ccccc1)NC(=O)[C@H](CO)NC(=O)[C@H](CO)NC(=O)[C@H](CCCNC(=N)N)NC(=O)[C@H](CC(N)=O)NC(=O)[C@H](CC(C)C)NC(=O)[C@H](Cc1ccccc1)NC(=O)[C@H](Cc1c[nH]cn1)NC(=O)[C@H](C)NC(=O)[C@H](CC(C)C)NC(=O)[C@H](CCCNC(=N)N)NC(=O)[C@H](CCC(=O)O)NC(=O)[C@@H](NC(=O)[C@H](C)NC(=O)[C@@H]1CSSC[C@H](NC(=O)[C@H](CCCNC(=N)N)NC(=O)CC[C@H](NC(=O)CCCCCCCCCCCCCCCCCCC(=O)O)C(=O)O)C(=O)NCC(=O)N[C@@H]([C@@H](C)O)C(=O)N[C@@H](C)C(=O)N[C@@H]([C@@H](C)O)C(=O)N1)[C@@H](C)O [Compound 6, [19CD]-isoGlu-R-C( )-GTAT-C( )-ATERLAHFLNRSSF-Gly(Me)-A-Ile(Me)-LSSTEVGSNT-Hyp-NH2] ({C20 diacid-γGlu}-RCGTATCATERLAHFLNRSSF[Sar]A[NMeI]LSSTEVGSNT[Hyp]-NH2; disulfide 2-7)
10.06 | A (A = >90%) | A (A = >90%) | A (A = >90%) | 0.0087 | A (A = >90%) | CC[C@H](C)[C@@H](C(=O)N[C@@H](CC(C)C)C(=O)N[C@@H](CO)C(=O)N[C@@H](CO)C(=O)N[C@H](C(=O)N[C@@H](CCC(=O)O)C(=O)N[C@H](C(=O)NCC(=O)N[C@@H](CO)C(=O)N[C@@H](CC(N)=O)C(=O)N[C@H](C(=O)N1C[C@H](O)C[C@H]1C(N)=O)[C@@H](C)O)C(C)C)[C@@H](C)O)N(C)C(=O)[C@H](C)NC(=O)CN(C)C(=O)[C@H](Cc1ccccc1)NC(=O)[C@H](CO)NC(=O)[C@H](CO)NC(=O)[C@H](CCCNC(=N)N)NC(=O)[C@H](CCC(N)=O)NC(=O)[C@H](CC(C)C)NC(=O)[C@H](Cc1ccccc1)NC(=O)[C@H](Cc1c[nH]cn1)NC(=O)[C@H](C)NC(=O)[C@H](CC(C)C)NC(=O)[C@H](CCCNC(=N)N)NC(=O)[C@H](CCC(=O)O)NC(=O)[C@@H](NC(=O)[C@H](C)NC(=O)[C@@H]1CSSC[C@H](NC(=O)[C@H](CCCNC(=N)N)NC(=O)CC[C@H](NC(=O)CCCCCCCCCCCCCCCCCCC(=O)O)C(=O)O)C(=O)NCC(=O)N[C@@H]([C@@H](C)O)C(=O)N[C@@H](C)C(=O)N[C@@H]([C@@H](C)O)C(=O)N1)[C@@H](C)O [Compound 7, [19CD]-isoGlu-R-C( )-GTAT-C( )-ATERLAHFLQRSSF-Gly(Me)-A-Ile(Me)-LSSTEVGSNT-Hyp-NH2] ({C20 diacid-γGlu}-RCGTATCATERLAHFLQRSSF[Sar]A[NMeI]LSSTEVGSNT[Hyp]-NH2; disulfide 2-7)
10.36 | A (A = >90%) | B (B = 70-90%) | B (B = 70-90%) | 0.0116 | B (B = 70-90%) | CC[C@H](C)[C@@H](C(=O)N[C@@H](CC(C)C)C(=O)N[C@@H](CO)C(=O)N[C@@H](CO)C(=O)N[C@H](C(=O)N[C@@H](CCC(=O)O)C(=O)N[C@H](C(=O)NCC(=O)N[C@@H](CO)C(=O)N[C@@H](CC(N)=O)C(=O)N[C@H](C(=O)N1CCC[C@H]1C(N)=O)[C@@H](C)O)C(C)C)[C@@H](C)O)N(C)C(=O)[C@H](C)NC(=O)CN(C)C(=O)[C@H](Cc1ccccc1)NC(=O)[C@H](CO)NC(=O)[C@H](CO)NC(=O)[C@H](CCCNC(=N)N)NC(=O)[C@H](Cc1c[nH]cn1)NC(=O)[C@H](CC(C)C)NC(=O)[C@H](Cc1ccccc1)NC(=O)[C@H](Cc1c[nH]cn1)NC(=O)[C@H](C)NC(=O)[C@H](CC(C)C)NC(=O)[C@H](CCCNC(=N)N)NC(=O)[C@H](CCC(=O)O)NC(=O)[C@@H](NC(=O)[C@H](C)NC(=O)[C@@H]1CSSC[C@H](NC(=O)[C@H](CCCNC(=N)N)NC(=O)CC[C@H](NC(=O)CCCCCCCCCCCCCCCCCCC(=O)O)C(=O)O)C(=O)NCC(=O)N[C@@H]([C@@H](C)O)C(=O)N[C@@H](C)C(=O)N[C@@H]([C@@H](C)O)C(=O)N1)[C@@H](C)O [Compound 15, [19CD]-isoGlu-R-C( )-GTAT-C( )-ATERLAHFLHRSSF-Gly(Me)-A-Ile(Me)-LSSTEVGSNTP-NH2] ({C20 diacid-γGlu}-RCGTATCATERLAHFLHRSSF[Sar]A[NMeI]LSSTEVGSNTP-NH2; disulfide 2-7)
9.96 | A (A = >90%) | B (B = 70-90%) | B (B = 70-90%) | 0.0128 | B (B = 70-90%) | CC[C@H](C)[C@@H](C(=O)N[C@@H](CC(C)C)C(=O)N[C@@H](CO)C(=O)N[C@@H](CO)C(=O)N[C@H](C(=O)N[C@@H](CCC(=O)O)C(=O)N[C@H](C(=O)NCC(=O)N[C@@H](CO)C(=O)N[C@@H](CO)C(=O)N[C@H](C(=O)N1C[C@H](O)C[C@H]1C(N)=O)[C@@H](C)O)C(C)C)[C@@H](C)O)N(C)C(=O)[C@H](C)NC(=O)CN(C)C(=O)[C@H](Cc1ccccc1)NC(=O)[C@H](CO)NC(=O)[C@H](CO)NC(=O)[C@H](CCCNC(=N)N)NC(=O)[C@H](CCC(N)=O)NC(=O)[C@H](CC(C)C)NC(=O)[C@H](Cc1ccccc1)NC(=O)[C@H](Cc1c[nH]cn1)NC(=O)[C@H](C)NC(=O)[C@H](CC(C)C)NC(=O)[C@H](CCCNC(=N)N)NC(=O)[C@H](CCC(=O)O)NC(=O)[C@@H](NC(=O)[C@H](C)NC(=O)[C@@H]1CSSC[C@H](NC(=O)[C@H](CCCNC(=N)N)NC(=O)CC[C@H](NC(=O)CCCCCCCCCCCCCCCCCCC(=O)O)C(=O)O)C(=O)NCC(=O)N[C@@H]([C@@H](C)O)C(=O)N[C@@H](C)C(=O)N[C@@H]([C@@H](C)O)C(=O)N1)[C@@H](C)O [Compound 28, [19CD]-isoGlu-R-C( )-GTAT-C( )-ATERLAHFLQRSSF-Gly(Me)-A-Ile(Me)-LSSTEVGSST-Hyp-NH2] ({C20 diacid-γGlu}-RCGTATCATERLAHFLQRSSF[Sar]A[NMeI]LSSTEVGSST[Hyp]-NH2; disulfide 2-7)
